Assay results as given in patent publication US20080242594A1, “Methods for Promoting Stem Cell Proliferation and Survival” (priority 2005, published 2008).

What was measured:
[1] = system: mouse fetal central nervous system stem cell cultures; assay: Survival of fetal CNS stem cell cultures with insulin and Dll4; type: cell-based
Protocol: As there was a tight correlation between the Notch survival pathway and Hes3, it was investigated as to whether Hes3 is a mediator of the Notch pro-survival signalling. It was determined that both insulin and Notch activation promote the survival of foetal and adult neural stem cell cultures and their effects are additive (Tables 8-9).

Akt = Akt phosphorylation immunoblot in CNS stem cells; type: cell-based, mouse; details: for Akt (total) / Akt-pS473 / Akt-pT308: absence of insulin
Protocol: Insulin in the medium is also thought to promote cell survival. […] Seeding cells in the absence of insulin caused the plating efficiency measured at five days to drop to 29.9%±37.9 (FIG. 1e). Delta-4 was able to compensate for the lack of insulin in the medium, and restored plating efficiency (125%±19.4). Because Notch activation improved survival, activation of Akt, a ser/threonine kinase known to be involved in cell survival, was assayed. Notch activation rapidly (5 minutes) promoted the phosphorylation of Akt on Ser473 and […] in both the presence and absence of insulin (FIG. 1f).

IGF1/insulin receptor = IGF1/insulin receptor phosphorylation in foetal NSC cultures; type: cell-based, mouse
Protocol: Specifically, D114 induced the phosphorylation of IGF1/insulin receptor. Peak phosphorylation occurred at 2-5 minutes.
It was determined that insulin facilitates Notch cleavage using immunocytochemical detection.

nucleostemin, SHH = assay: Nucleostemin and SHH protein expression in CNS stem cells; type: cell-based, mouse
From the text: The interest in stem cell self-renewal mechanisms prompted analysis of potential down-stream components of the Notch/STAT3-Ser727 (Notch/sSTAT) pathway. Nucleostemin is a p53-binding protein expressed in self-renewing CNS stem cells and cancer cells (Tsai et al., J Neurosci 20:3725-35, 2000; Tsai et al., J Cell Biol 168:179-84, 2005). Sonic Hedgehog (SHH) is a protein with functions in fate specification and stem cell survival in the fetal and adult CNS (Palma et al., Development 132:335-44, 2005).
There are two forms of mRNA encoded by the Hes3 gene, Hes3a and Hes3b.

H9 hES cells = assay: hES colony number formation, H9; type: cell-based, human; details: H9 line
From the text: The human ES cell lines HSF-6 (University of California, San Francisco; NIH # UC06, Passage 38-120) and H1 and H9 (WiCell Research Institute, NIH # WA01 and […]) were maintained on mouse embryonic fibroblasts (MEF) according to the suppliers' protocols. Immunocytochemistry and FACS analysis for the expression of Oct4 and SSEA4 and SKY karyotyping established that the starting cells are undifferentiated and have a normal set of chromosomes. For single cell survival experiments, hES colonies were harvested after treatment with 1.5 mg/ml collagenase type IV (Invitrogen), separated from the MEF feeder cells by repeated washing by gravity, gently triturated to break up colonies into small aggregates, further dissociated into a single cell solution by trypsination (0.05% trypsin/0.04% EDTA) and transferred on MEF feeder cells at a density of 10000 cells/ml. Oct-4 positive colonies were counted six days after plating. […]
The pro-survival effects of activation of Notch and inhibition of JAK was tested on HSF-6 (NIH code UC06, http://escell.ucsf.edu), H1 (NIH code WA01, www.wicell.org) and H9 (NIH code WA09, www.wicell.org) hES cells. Singly dissociated hES cells were plated on mouse embryo fibroblasts (MEFs), treated daily for one week and colony numbers counted. […]

[2] = system: p38, SMAD1/5/8, MSK-1, STAT3 phosphorylation in hES cells; assay: Signalling immunoblots in hES cells; details: absence of MEF, within one hour
Protocol: Immunoblotting: Immunoblotting was performed as previously described (Panchision et al., Genes Dev 15:2094-110, 2001). The following antibodies were used in the experiments described below: pSer473-Akt (92715), pSer308-Akt (9275), pSer2448-mTOR (29715), pThr180/Tyr182-p38 (9211), pSMAD1/5/8 (9511) from Cell Signaling; STAT3 (482), pSer727-STAT3 (8001-R), pTyr705-STAT3 (7993) from Santa Cruz; Sonic Hedgehog (R&D, AF464), nucleostemin (McKay Lab), Hes3 (Chemicon, AB5706), α-tubulin (Sigma, T-6074).
To determine whether in the hES system JAK inhibition reduced p38 activity, cells were treated in the absence of MEF with JAK inhibitor for different times and assayed for p38 phosphorylation.

HSF6 hES cells = assay: hES self-renewal over 3 passages; type: cell-based, human; details: 3 passages (3 weeks), daily treatments
From the text: To assess whether JAK inhibition was consistent with self-renewal of hES cells, HSF6 cells were continuously exposed to the JAK inhibitor by daily additions for three passages as single cells (three weeks) and analyzed for expression of antigens that distinguish the undifferentiated and differentiated states. The cells exposed to the drug, like the FGF2 controls, had normal morphology, were positive for Oct3/4, SSEA4, Tra-1-60, and Tra-1-81, and negative for SSEA1 (FIG. 5f, FIG. 11). To assess their ability to differentiate into neural precursors, embryoid bodies (EBs) were generated and many Sox1+/Nestin+ cells obtained (FIG. 11). Finally, to assess that the cells retained their ability to generate TH+ neurons, direct differentiation protocols were performed; a high proportion of TH+/TUJ1+ cells were obtained (FIG. 5g).

[3] = Insulin withdrawal, 2 days and then treat for 1 h

| pIGF1 (19H7) (IGF1/insulin receptor; [3]) | pIGF1 (3021) (IGF1/insulin receptor; [3]) | time of peak phosphorylation of IGF1/insulin receptor (IGF1/insulin receptor; foetal NSC cultures) | Molecule | Cell # [1] | Akt (total) (Akt; Dll4, 5 min) | Akt-pS473 (Akt; Dll4, 5 min) | Akt-pT308 (Akt; Dll4, 5 min) | Akt (total) (Akt; Dll4, 10 min) | Akt-pS473 (Akt; Dll4, 10 min) | Akt-pT308 (Akt; Dll4, 10 min) | time of peak Akt phosphorylation on Ser473 and Ser308 (Akt; presence and absence of insulin, Western blotting) | nucleostemin and SHH protein expression (nucleostemin, SHH) | colony number formation (H9 hES cells) | p38 phosphorylation [2] | morphology and antigenic profile (HSF6 hES cells) |
| --- | --- | --- | --- | --- | --- | --- | --- | --- | --- | --- | --- | --- | --- | --- | --- |
| Low | Low | 2 to 5 min | Delta-4: soluble Notch ligand Delta-4 (1389-D4) from R&D | High | Medium | High | High | Medium | Medium | Medium | 5 min | induced nucleostemin and SHH protein expression |  |  |  |
|  |  |  | CC(C)(C)c1nc2c3ccc(F)cc3c3c(=O)[nH]ccc3c2[nH]1 [JAK Inhibitor, 2-(1,1-Dimethylethyl)-9-fluoro-3,6-dihydro-7H-benz[h]-imidaz[4,5-f]isoquinolin-7-one] |  |  |  |  |  |  |  |  |  | 347.6%±59.5 | significantly reduced p38 phosphorylation | retained normal morphology and antigenic profile of undifferentiated hES cells |
